Source: patent publication US5500807A, “Selection method for pharmacologically active compounds” (The Regents of the University of California, priority 1992, dated 1996)

Experiments:
[1] = molecular target: T1, human thyroid hormone receptor (Homo sapiens, UniProt P10828); assay: Receptor binding to in-vitro translated human thyroid hormone receptor (FIGS. 8-13)
T1 sequence (P10828 1-461): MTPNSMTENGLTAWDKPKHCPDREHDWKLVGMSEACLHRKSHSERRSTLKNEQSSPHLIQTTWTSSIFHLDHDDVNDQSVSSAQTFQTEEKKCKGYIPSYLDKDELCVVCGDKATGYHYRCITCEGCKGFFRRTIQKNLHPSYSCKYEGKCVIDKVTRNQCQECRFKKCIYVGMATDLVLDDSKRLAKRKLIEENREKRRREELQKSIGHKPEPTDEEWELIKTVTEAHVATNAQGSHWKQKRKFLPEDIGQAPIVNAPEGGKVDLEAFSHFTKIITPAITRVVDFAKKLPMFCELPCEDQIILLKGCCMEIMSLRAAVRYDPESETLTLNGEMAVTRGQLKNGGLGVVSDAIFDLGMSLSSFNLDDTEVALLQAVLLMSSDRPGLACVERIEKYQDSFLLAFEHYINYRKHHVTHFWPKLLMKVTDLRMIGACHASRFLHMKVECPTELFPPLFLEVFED
Description: In FIGS. 8-13, human thyroid hormone receptor was produced by in-vitro translation of RNA coding for the receptor protein. The RNA was synthesized enzymatically using a human thyroid receptor DNA clone as a template.

[2] = test system: thyroid hormone receptor in nuclei of intact GC cells; assay type: cell-based, rat; conditions: for competition with labeled T3, in words: intact cells
Description: Cell Culture utilized GC cells obtained from the cellular culture facility at UCSF. GC cells were plated at 2-4×10^6 cells/100 mm tissue culture disk obtained from Falcone, and were maintained at 37° C., in the mixture of O2 /CO2 95/5%, in DMEM 21 medium containing 10% of fetal calf serum, obtained from J. R. Scientific, Woodland, Calif., to which 100/ml of penicillin and streptomycin, and 2 mM of glutamine were added.
After 18 hours, cells were rinsed with 1 ml of PBS for 10 minutes at 37° C. and incubated for four hours in DMEM containing 10% serum substitute solution and 2% stripped calf serum. […] Incubations were carried out at 37° C. on a Tilt table.

[3] = nuclear but not mitochondrial or cytosol fractions; cited from earlier work
[4] = test system: rGH mRNA in GC cells; conditions: 300 pM T3; Northern analysis; FIG. 7a
Description: GC cells were plated at 2-4×10^6 cells/100 mm tissue culture disk obtained from Falcone, and were maintained at 37° C., in the mixture of O2 /CO2 95/5%, in DMEM 21 medium containing 10% of fetal calf serum, obtained from J. R. Scientific, Woodland, Calif., to which 100/ml of penicillin and streptomycin, and 2 mM of glutamine were added.
Preparation and Quantitation of Cytoplasmic RNA was done by plating and attachment for 12-18 hours of GC cells, followed by deinducing 4 days in 20 ml of DMEM containing 10% serum substitute solution obtained from Cell Culture Facility, UCSF, and 2% of stripped serum, prepared above. Media were replaced after the second day of deinduction.
The amount of rGH message present in aliquots of GC cell cytoplasm was determined by Northern hybridization using glyoxylated RNA (Ibid., p. 380). Equal amounts of cytoplasmic RNA were examined per lane (15 or 20 ug). HeLa cell RNA was also tested as a control for specificity and background binding. […] Some blots were also probed with a 1.6 kb Kho I fragment of the pHF1 human gamma-actin gene according to Mol. Cel. […] Hybridizations were carried out for 18-48 hours at 42° C. Blots were autoradiographed with Kodak XAR-2 film using Cronex Lightning plus intensifying screens.
After hybridization, blots were autoradiographed and analyzed using Zenith scanning densitometer.

[5] = test system: thyroid hormone receptor; conditions: J. Clin. Invest., 83 (1989); cited from earlier work
[6] = cited from earlier work
[7] = cases of clinical hypothyroidism

## CCN(CC)CCOc1c(I)cc(C(C)=O)cc1I
[1]
  binding to T3 (thyroid hormone) receptor, in words: zero binding

## CCN(CC)CCOc1c(I)cc(C(=O)c2c(C)oc3ccccc23)cc1I
[1]
  binding to T3 (thyroid hormone) receptor, in words: good binding to T3 receptor

## CCCCc1oc2ccccc2c1C(O)c1cc(I)c(OCCN(CC)CC)c(I)c1 (stereo not drawn)
[1]
  binding to T3 (thyroid hormone) receptor, in words: binds weakly to the T3 receptor

## CCCCNC(Cc1cc(I)c(Oc2ccc(O)c(I)c2)c(I)c1)C(=O)O (stereo not drawn)
[1]
  binding to T3 (thyroid hormone) receptor, in words: binds to the T3 receptor

## COc1ccc(C(=O)n2cc(CNC(Cc3cc(I)c(Oc4ccc(O)c(I)c4)c(I)c3)C(=O)O)c3cc(OC)ccc32)cc1 (stereo not drawn)
[1]
  binding to T3 (thyroid hormone) receptor, in words: binds to the T3 receptors

## N[C@@H](Cc1cc(I)c(Oc2ccc(O)c(I)c2)c(I)c1)C(=O)O [T3, triiodothyronine]
[2]
  competition with labeled T3, in words: competed with labeled T3 for binding to the thyroid hormone receptors
[3]
  binding to cellular fractions, in words: high-affinity, low capacity binding sites

## N[C@@H](Cc1cc(I)c(Oc2cc(I)c(O)c(I)c2)c(I)c1)C(=O)O [T4, thyroxine]
[3]
  binding to cellular fractions, in words: high-affinity, low capacity binding sites

## N[C@@H](Cc1cc(I)c(Oc2ccc(O)c(I)c2)c(I)c1)C(=O)O [^125 I-T3]
[2]; intact GC cells, normalized to DNA content
  maximum binding capacity: about 85 fmol/100 ug DNA

## CCCCc1oc2ccccc2c1C(=O)c1cc(I)c(OCCN(CC)CC)c(I)c1 [amiodarone, 2-butyl-3-[3,5-diiodo-4-(β-diethylaminoethoxy)-benzoyl]benzofuran]
[4]
  effect on induction of rGH mRNA: blocked the induction of rGH mRNA
[2]
  competition with labeled T3, in words: competed with labeled T3 for binding to the thyroid hormone receptors
[5]
  thyroid hormone antagonism, in words: behaves as a competitive inhibitor of triiodothyronine (T3)
[6]; [7]
  T4 and T3 serum levels in clinical hypothyroidism: normal or slightly decreased
  pituitary thyroid receptor hormone binding: decreased pituitary thyroid receptor hormone binding
  thyroid-stimulating hormone (TSH) levels: mildly elevated
[6]; chronic administration
  thyroid side effects: both hyper- and hypothyroid-like side effects
[6]; in vivo
  effect on peripheral T4 monodeiodination: inhibition of peripheral T4 monodeiodination
  serum T4 and T3 levels: changes in the concentrations of serum thyroxine (T4) and triiodothyronine (T3) levels
